Experimental data from ChEMBL document CHEMBL3217509, “Discovery of an HIV integrase inhibitor with an excellent resistance profile” (Medchemcomm, 2013).

Experiments:
[1] = Inhibition of DNA polymerase beta (unknown origin); set-up: species or system Homo sapiens
[2] = Inhibition of DNA polymerase alpha (unknown origin); set-up: species or system Homo sapiens
[3] = Inhibition of DNA polymerase gamma (unknown origin); set-up: species or system Homo sapiens
[4] = Intrinsic clearance in human liver microsomes assessed per mg of protein by LC-MS/MS analysis; format: ADME; conditions: read-out: CLH
[5] = tested on: Human immunodeficiency virus 1; test: Antiviral activity against HIV1 NL4-3 infected in human MT2 cells after 3 days by human JC53BL cell-based beta-galactosidase reporter gene assay; format: functional, organism-based; conditions: Human immunodeficiency virus 1, NL4-3, JC53BL, 72 h
[6] = Intrinsic clearance in human hepatocytes assessed assessed per million of cells by LC-MS/MS analysis; format: ADME, cell-based, Hepatocyte; conditions: read-out: CLH
[7] = Intrinsic clearance in human liver microsomes assessed per mg of protein by LC-MS/MS analysis in presence of UDPGA; format: ADME; conditions: read-out: CLH
[8] = Aqueous solubility of the compound at pH 7.4; format: physicochemical; conditions: buffer

Compound | IC50 [1] | IC50 [2] | IC50 [3] | microsomal CLint [4] | IC50 [5] | hepatocyte CLint [6] | microsomal CLint [7] | solubility [8]
Cc1cn([C@H]2CC[C@@H](COP(=O)(O)OP(=O)(O)OP(=O)(O)O)O2)c(=O)[nH]c1=O | 1.96 µM | 7.17 µM | – | – | – | – | – | –
O=C1Nc2ccc(Cl)cc2[C@@](C#CC2CC2)(C(F)(F)F)O1 [EFAVIRENZ] | > 50 µM | > 50 µM | ≤ 50 µM | – | – | – | – | –
COc1cc(F)ccc1Cn1ccc2c3c(ncc21)C(=O)N(O)C3(C)C | – | – | – | < 8 µL/min/mg | > 7.48 µM | 28.8 µL/min/1e6 cells | 4.8 µL/min/mg | –
Cc1cn([C@H]2C[C@H](N=[N+]=[N-])[C@@H](COP(=O)(O)OP(=O)(O)OP(=O)(O)O)O2)c(=O)[nH]c1=O [ZIDOVUDINE TRIPHOSPHATE] | 1.96 µM | 7.17 µM | 3.7 µM | – | – | – | – | –
COCCNC(=O)c1c(O)c2ncc3c(ccn3Cc3ccc(F)cc3)c2[nH]c1=O | – | – | – | 32 µL/min/mg | 0.006 µM | 5.9 µL/min/1e6 cells | 3.5 µL/min/mg | < 1 µg/mL
COc1cc(F)ccc1Cn1ccc2c3c(ncc21)C(=O)N(O)C(C)(C)C3 | – | – | – | 17 µL/min/mg | 0.0039 µM | 37.7 µL/min/1e6 cells | 19.7 µL/min/mg | –
O=C1c2ncc3c(ccn3Cc3ccc(F)cc3)c2CCN1O | – | – | – | 19.2 µL/min/mg | – | 29.6 µL/min/1e6 cells | 24 µL/min/mg | –
